Laboratory results reported in US20160287696A1, “PAN POLLEN IMMUNOGENS AND METHODS AND USES FOR IMMUNE RESPONSE MODULATION” (LA JOLLA INSTITUTE FOR ALLERGY AND IMMUNOLOGY, priority 2013, published 2016).

System: cultured PBMCs of the allergic donors
Test: ELISPOT of IL-5 or IFNg production by cultured PBMCs of TG allergic donors in response to peptide
Type: cell-based, human
Settings: for NTGA's containing at least one T cell epitope, Th+ (Col 2): NTGA number given = criterion met, TG allergic donors n=20; for No of PG+ & th+ peptides per NTGA / No of PP & Th+ peptides per NTGA: Table 6; for No of PG+ & th+ peptides per NTGA: PG+ peptides recognized by T cells of grass allergic donors (n=20); for No of PP & Th+ peptides per NTGA: PP peptides recognized by T cells of grass allergic donors (n=20); for # Th+: Table 7, peptides per NTGA recognized by T cells of grass allergic donors (n=20)
From the text: Table 1 indicates for each of the 397 PG+ peptides in which non-grass pollen species a matching peptide with either less than 3, less than 2 or zero mismatches are found. The number of TG grass allergic donors (n=20) with an in vitro T cell response to the TG peptide sequence is also shown.
A set of 93 proteins from Timothy grass (TG) pollen and the assembly of 822 peptides (15 mers) predicted to promiscuously bind HLA class II molecules shown in Table 9 and the immune reactivity in allergic donors have been reported in PCT application WO 2013/119863. […] Immune reactivity was determined by the production of IL-5 or IFNg from cultured PBMCs of the allergic donors in response to stimulation with a peptide and IL-5 and IFNg were measured by ELISPOT as described in Oseroff C et al, 2010.
In short, T cell immune reactivity was determined using PBMCs isolated from study participants and stored in liquid nitrogen until further use. For experimental testing, PBMCs were thawed and expanded in vitro with TG pollen extract (50 μg/mL) or the peptide pool ([…]). The TG extract and peptide pools had each been previously titrated to determine optimal stimulation concentrations.
Cytokine production by cultured PBMCs in response to antigen stimulation was measured by ELISPOT. Cells (1×10^5 cells/well) were plated and incubated with peptide (10 μg/mL), the peptide pool (5 μg/mL), or the TG extract (50 μg/mL). Phytohaemagglutinin (10 μg/mL) and medium alone were used as positive and negative controls, respectively. Samples were considered to produce a cytokine if 100 spot-forming cells (SFCs)/10^6 PBMCs were detected, with P .05 and a stimulation index of 2 or more. Criteria for individual peptides were the same except that a minimum of 20 SFCs were required for a sample to be counted as positive.
Table 3 lists the 397 PG+ peptides and indicates for each non-grass pollen species whether a matching peptide with either less than 3, less than 2 or zero mismatches could be detected. The immune reactivity of the TG peptide was assessed as the number of TG grass allergic donors (n=20) having in vitro T cell response against the TG peptide.

| Substance | NTGA's containing at least one T cell epitope, Th+ (Col 2) | No of PG+ & th+ peptides per NTGA | No of PP & Th+ peptides per NTGA | # Th+ |
| --- | --- | --- | --- | --- |
| 42 (HQGIRYLFGDGSRLV) [compound 42] | 42 | 1 | 1 | 0 |
| 44 (GATIRIYIEQYEKDS) [compound 44] | – | 0 | 0 | 0 |
| 45 (DALSPLVDVALKLSK) [compound 45] | – | – | – | 0 |
| 46 (LDIAVRLLEPIKEQV) [compound 46] | – | – | – | 1 |
| 48 (ILSYADFYQLAGVVA) [compound 48] | – | 0 | 0 | 0 |
| 50 (NPLIFDNSYFTELLT) [compound 50] | – | 0 | 0 | 0 |
| 54 (FLDLIVLQIESLNKK) [compound 54] | 54 | – | – | – |
| 55 (LNKKYGSNVPLLLMN) [compound 55] | – | 0 | 0 | 0 |
| 57 (LKIVEKYANSSIDIH) [compound 57] | – | 0 | 0 | 0 |
| 58 (GKLDLLLSQGKEYVF) [compound 58] | – | 0 | 0 | 0 |
| 60 (SDNLGAIVDMKILNH) [compound 60] | – | 0 | 0 | 0 |
| 61 (ISYEGRVQLLEIAQV) [compound 61] | – | – | – | 0 |
| 63 (FKSIEKFKIFNTNNL) [compound 63] | – | – | – | 0 |
| 66 (IKRLVEADALKMEII) [compound 66] | – | – | – | 0 |
| 67 (VKVLQLETAAGAAIR) [compound 67] | – | – | – | 0 |
| 68 (AAIRFFDHAIGINVP) [compound 68] | – | – | – | 0 |
| 69 (GINVPRSRFLPVKAT) [compound 69] | – | 0 | 0 | 0 |

| Substance | NTGA's containing at least one T cell epitope, Th+ (Col 2) | No of PG+ & th+ peptides per NTGA | No of PP & Th+ peptides per NTGA | # Th+ |
| --- | --- | --- | --- | --- |
| 70 (RFLPVKATSDLQLVQ) [compound 70] | – | – | – | 0 |
| 71 (TSDLQLVQSDLYTLV) [compound 71] | – | – | – | 0 |
| 72 (VQSDLYTLVDGFVTR) [compound 72] | 72 | 2 | 1 | 0 |
| 74 (GRFKSIPSIVELDSL) [compound 74] | – | – | – | 0 |
| 75 (GTIRNIINGTVFREP) [compound 75] | – | – | – | 0 |
| 78 (GRFKDIFQAVYEADW) [compound 78] | – | – | – | 0 |
| 79 (WYEHRLIDDMVAYAL) [compound 79] | 79 | 1 | 0 | 0 |
| 80 (VQSDFLAQGFGSLGL) [compound 80] | – | – | – | 0 |
| 81 (NSIASIFAWTRGLAH) [compound 81] | – | – | – | 0 |
| 82 (DNARLLDFTQKLEDA) [compound 82] | – | – | – | 0 |
| 83 (LNTEEFIDAVAAELQ) [compound 83] | 83 | 11 | 4 | 0 |
| 84 (KSLVRAFMWDSGSTV) [compound 84] | 84 | 4 | 3 | 0 |
| 85 (RVLSCDFKPTRPFRI) [compound 85] | – | – | – | 0 |
| 88 (IKLKNMLFHTARINC) [compound 88] | – | – | – | 0 |
| 92 (SVGFVETLENDLAQL) [compound 92] | – | – | – | 0 |
| 93 (LGEAPYKFKSALEAV) [compound 93] | – | – | – | 0 |
